From ChEMBL document CHEMBL1201862, “PubChem BioAssay data set” (2004)
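Five concentrations, 48 hours, 96-well plates. Abbreviation: GI50, concentration required for 50% inhibition of growth.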 Active and inactive are the calls of the source. Rule as the data show it: active = GI50 up to about 1.1 µM and inactive = higher.

Assays:
Test in all cases: growth of human tumour cells (NCI), 48 h
A549 = tested on: A549
ACHN = tested on: ACHN
CAKI-1 = tested on: CAKI-1
HCT-15 = tested on: HCT-15
HOP-62 = tested on: HOP-62
IGROV-1 = tested on: IGROV-1
MCF7 = tested on: MCF7
MDA-MB-231 = tested on: MDA-MB-231
MOLT-4 = tested on: MOLT-4
Malme-3M = tested on: Malme-3M
NCI-H226 = tested on: NCI-H226
OVCAR-5 = tested on: OVCAR-5
RPMI-8226 = tested on: RPMI-8226
SF-539 = tested on: SF-539
SK-MEL-5 = tested on: SK-MEL-5
SR = tested on: SR
TK-10 = tested on: TK-10
U-251 = tested on: U-251
UACC-62 = tested on: UACC-62
SNB-75 = tested on: SNB-75

Measured: GI50

CCc1n[nH]c(=O)n1/N=C/c1ccccc1Cl
inactive: A549 > 100 µM | ACHN > 100 µM | CAKI-1 > 100 µM | HOP-62 76.2 µM | IGROV-1 78.3 µM | MCF7 > 100 µM | MDA-MB-231 > 100 µM | MOLT-4 > 100 µM | Malme-3M > 100 µM | NCI-H226 88.5 µM | OVCAR-5 > 100 µM | RPMI-8226 > 100 µM | SF-539 > 100 µM | SK-MEL-5 > 100 µM | SR > 100 µM | TK-10 > 100 µM | U-251 65.8 µM | UACC-62 53.6 µM
> 100 µM: HCT-15

Cc1ccc(-c2cnc(NC3OC(COC(=O)c4ccccc4)C(OC(=O)c4ccccc4)C(OC(=O)c4ccccc4)C3OC(=O)c3ccccc3)s2)cc1 (configuration not stated)
inactive: A549 > 100 µM | ACHN > 100 µM | HOP-62 > 100 µM | IGROV-1 > 100 µM | MCF7 > 100 µM | MDA-MB-231 > 100 µM | MOLT-4 > 100 µM | Malme-3M > 100 µM | NCI-H226 > 100 µM | OVCAR-5 61.7 µM | RPMI-8226 > 100 µM | SK-MEL-5 > 100 µM | SNB-75 > 100 µM | SR > 100 µM | TK-10 > 100 µM | U-251 > 100 µM | UACC-62 94.6 µM
> 100 µM: HCT-15

Cc1nc2ccc(F)cc2c(Cl)c1CCCl
inactive: A549 42.3 µM | ACHN 78.7 µM | HOP-62 84.9 µM | IGROV-1 59.8 µM | MCF7 43.5 µM | MDA-MB-231 27 µM | MOLT-4 21.3 µM | Malme-3M 31.6 µM | NCI-H226 54.1 µM | RPMI-8226 42.8 µM | SF-539 67.3 µM | SK-MEL-5 22 µM | SNB-75 72.6 µM | SR 19.9 µM | TK-10 62.8 µM | U-251 30.4 µM | UACC-62 27.7 µM
34.3 µM: HCT-15

C=C1C(=O)O[C@@H]2O[C@@]3(C)CC[C@H]4[C@H](C)CC[C@@H]1[C@@]24O3 [DEOXYARTEMISITENE]
inactive: A549 34.8 µM | ACHN 11.3 µM | CAKI-1 15.7 µM | HOP-62 49.5 µM | IGROV-1 3.38 µM | MCF7 5.52 µM | MDA-MB-231 25.9 µM | MOLT-4 9.08 µM | Malme-3M 14.2 µM | NCI-H226 40 µM | OVCAR-5 38.5 µM | RPMI-8226 6.37 µM | SF-539 11 µM | SK-MEL-5 19.1 µM | SR 7.18 µM | TK-10 15.9 µM | U-251 43.4 µM | UACC-62 13 µM
10.9 µM: HCT-15

CC(C)(C)OCC1NC(=O)[C@@H]2Cc3c([nH]c4ccccc34)C(C3CCCCC3)N2C1=O (some centres not stated)
24 µM: HCT-15
inactive: A549 33.7 µM | ACHN 27 µM | CAKI-1 17.7 µM | HOP-62 16.1 µM | IGROV-1 23.2 µM | MCF7 31.6 µM | MDA-MB-231 17.4 µM | MOLT-4 16.5 µM | Malme-3M 21.1 µM | NCI-H226 22 µM | OVCAR-5 24.2 µM | RPMI-8226 19.8 µM | SK-MEL-5 15.2 µM | SR 16.2 µM | TK-10 24.3 µM | U-251 20.4 µM | UACC-62 14.9 µM
